Entries after “also recorded” stand apart in the source; their conditions may differ. Ends that are not written are not given here. * marks the point of attachment. Stearoyl = CCCCCCCCCCCCCCCCCC(=O)*

The values below come from US20220380408A1, “COMPOSITIONS AND METHODS FOR INHIBITING NEOINTIMAL FORMATION” (University of Virginia Patent Foundation, priority 2019, published 2022).

Assay [1] concerns Human coronary artery smooth muscle cells. As to the kind of experiment: EDU proliferation by flow cytometry in cultured human coronary artery smooth muscle cells. Type of assay: cell-based. Conditions: for proliferation (EDU incorporation, flow cytometry): hCASMC incubated with agent for 48 hours (PGPC 100 μg, POVPC 100 μg, PDGF 20 ng). Here is the method: (§1) Protein expression and interaction in cultured human coronary artery smooth muscle cells. Human coronary artery smooth muscle cells (Thermo Fisher Scientific, Inc., Waltham, Massachusetts, United States of America), were cultured until confluent in M231 media containing growth supplement (Thermo Fisher Scientific, Low Serum Growth Supplement Kit (LSGS) kit) as well as 20% fetal bovine serum (FBS). Prior to incubations, media was switched to low serum media (M231+2% FBS) for 3 days as previously described (Lohman et al., 2016). Cells were then incubated with oxidized phospholipids 1-palmitoyl-2-glutaroyl-sn-glycero-3-phosphorylcholine (PGPC, 100 μg) and 1-palmitoyl-2-oxovaleroyl-sn-glycero-3-phosphorylcholine (POVPC 100 μg), or the growth factor platelet derived growth factor beta (PDGF, 20 ng) as we have previously described (Johnstone et al. 2009; Johnstone et al. 2012) for 48 hours prior to harvesting and analysis for Western blotting and co-immunoprecipitation and EDU proliferation by flow cytometry as previously described (Johnstone et al. 2012). For peptide incubations, peptides were pre-incubated for 30 minutes with cells in fresh media prior to adding any further treatments.
However, the ability to bind with, and therefore activate, cyclin D was inhibited in the presence of PGPC (see FIG. 2A). […] Taken together, this identified Cx43 phosphorylation status as a molecular switch that controlled cellular proliferation (MAPK-Cx43) or quiescence (PKC-Cx43), a model that is depicted in see FIG. 2C.
(§2) Peptides representing sequences within the C-terminus of human Cx43, designed by peptide array, inhibited proliferation of human smooth muscle cells (see FIGS. 3A-3F). Cells were pretreated for 30 minutes with peptides, prior to incubation with PDGF for 2 days.
On the technique in general: A flow cytometer gives signals particle by particle.

For assay [2], the system named is cyclin D. As to the kind of experiment: Co-immunoprecipitation of Cx43 with cyclin D in human coronary artery smooth muscle cells. Conditions: hCASMC. Type of assay: cell-based. Here is the method:
as §1
However, the ability to bind with, and therefore activate, cyclin D was inhibited in the presence of PGPC (see FIG. 2A). […]

Assay [3] concerns human saphenous vein tissues. The assay can be described thus: Ex vivo human saphenous vein explant model (HUSVEM). In kind it is cell-based. Conditions: PDGF 50 ng/mL, 14 days, peptide 30 μM, everolimus 10 nM. Here is the method: Ex vivo, human saphenous vein explant model (HUSVEM). The translational relevance of the peptides was assessed in an ex vivo, human saphenous vein explant model (HUSVEM) based on previously validated protocols (Baker et al. 1997; Dreifaldt et al. 2013; Loesch, Dashwood & Souza, 2006; George et al., 1996). Briefly, human veins were obtained as excess tissue from coronary artery bypass surgeries. The protocol was assessed by the Institutional Review Board (IRB) of the University of Virginia (Charlottesville, Va., United States of America), and no IRB protocol was required. Human saphenous veins were opened laterally, cut into 10 mm sections, and pinned with the endothelial side facing up on SYLGARD® brand silicone curing agent-coated plates in RMPI media containing 2% FBS. After 1 hour, cells were incubated with either control peptide or CycliCx peptide (30 μM; LDPAKDCGDQKYAY; SEQ ID NO: 1) or everolimus (10 nM; Sigma Aldrich) for a further 60 minutes, prior to adding PDGF (50 ng/mL). Media was changed daily with fresh media containing peptides or everolimus and PDGF. At the end of 14 days media was removed and tissues fixed in 4% PFA for 24 hours then washed in 70% ethanol, prior to embedding in 3% agarose. Samples were then processed by routine paraffin embedding and stained using hematoxylin and eosin and van Gieson stains. Comparisons of neointmal growth were made, where the uppermost layer of elastin was used to identify the start region for formed neointima. Neointimal areas were calculated across 10 serial sections from each tissue and averaged. Analysis of PDGF treated vessels to peptide and everolimus treated tissues were made.
An exemplary CycliCx peptide (LDPAKDCGDQKYAY; SEQ ID NO: 1) was applied to human saphenous veins in ex vivo preparations for 2 weeks in the presence of PDGF and compared to everolimus, an agent used in drug eluting stents.

The test system of assay [4] is mouse carotid arteries. The assay can be described thus: Mouse carotid ligation neointimal formation model. In kind it is in vivo. Conditions: for Neointimal/media Ratio (±SEM): carotid ligation, 200 μg peptide in pluronic, 2 weeks. How it is done: Mouse carotid surgeries. Carotid ligation and pluronic application surgeries were performed as described (Johnstone et al. 2009; Johnstone et al. 2012). Briefly, mice were anesthetized by isoflurane and the left common carotid artery was exposed and carefully freed from surrounding tissue. A 6/0 silk suture was run under the carotid artery distal to the bifurcation site and two consecutive, flat square knots were tied tight enough to restrict blood flow. Control mice were surgical controls, where carotid artery was exposed and freed of surrounding tissue as described above but no suture was applied. Following ligation either 35% F127 pluronic gel, CycliCx peptide (200 μg in pluronic; LDPAKDCGDQKYAY; SEQ ID NO: 1) or control peptide (200 μg in pluronic; AYFNGCSSPTAPLDP; SEQ ID NO: 3) was applied to the outside of the carotid wall and surgical wound closed. At 2 weeks after surgery, mice were euthanized with an intraperitoneal injection of 60-90 mg/kg pentobarbital. Mice were perfused with 4% paraformaldehyde (PFA) and both treated (left common) and control (right common) carotids removed and stored in 4% PFA overnight for whole mount analysis or immunosectioning. For in vivo cell proliferation studies, mice were preinjected with 5-ethynyl-2′-deoxyuridine (EDU) prior to surgery and carotids were removed post-treatment for whole mount or tissue cross section analysis of EDU incorporation into proliferating cells. For analysis of neointima formation in vessels, areas corresponding to the media (containing vascular smooth muscle cells (VSMC)), neointima (containing proliferating VSMC) and lumen (void area) were measured on Haemotoxylin and Eosin (H&E) stained cross sections of carotid vessels and analyzed by Image J, image analysis software. The ratio of media:neointima was calculated.
An exemplary CycliCx peptide (LDPAKDCGDQKYAY; SEQ ID NO: 1) was applied to the carotids of mice for 14 days after placement of a suture to induce neointimal formation (FIG. 4A). In both ligation only and ligation with peptide, extensive neointima formed. […] Effects were tested in both male and female mice, and no sex-specific differences were noted (FIG. 4B and Table 1).

Assay [5] addresses T1, cyclin E (Homo sapiens, UniProt P24864). The assay can be described thus: Peptide array (truncation array) probed with cyclin E protein. In kind it is binding. Further details: made in house. Conditions: based on mouse Cx43 sequence; cyclin E 10 μg/mL overnight. The text has this:
Peptide array. The C-terminus of the human Cx43 polypeptpide (Cx43-CT) is about 150 amino acids (a.a.) with a high abundance (>10%) of post-translationally modified sites (Aasen et al., 2018). This means that hundreds of combinations are required to delineate binding parameters. Using novel peptide array technology, the sites of interaction between connexin 43 (Cx43) and cyclin E were mapped. Immobilized peptide libraries corresponding to 25-residue regions of Cx43-CT were designed, synthesized, and nitrocellulose arrays generated. To test the requirement for phosphorylation, specific residues were replaced to mimic known protein interacting states (e.g., MAPK-Cx43 serines 255/262/279/282; see Johnstone et al. 2012). The role for phosphorylation was assayed in binding using single and multiple residue replacements. These included wild-type serine (S), native phospho-serine (pS), aspartate (D, phospho-mimic), or alanine (A, phospho-null) residues. Recombinant human cyclin E protein was generated for incubation with arrays (Johnstone et al. 2012). […] Signal was then detected using electrochemiluminescence (ECL) detection reagents as per manufacturer protocol (PIERCE™ brand, available from Thermo Fisher Scientific, Inc., Waltham, Mass., United States of America) and blots were scanned for analysis. […]

Assay [6] has as its system Cx43. As to the kind of experiment: Western blot of Cx43 phosphorylation status in human coronary artery smooth muscle cells. In kind it is cell-based. Conditions: hCASMC. Here is the method: as §1, §2
Assay [7] concerns the target T1, cyclin E. The assay can be described thus: Co-immunoprecipitation of Cx43/cyclin E interaction in human SMC. In kind it is cell-based. Further details: host or cells: human coronary artery smooth muscle cells. Conditions: versus no peptide and scrambled peptide. Here is the method: as §1
Peptides representing sequences within the C-terminus of human Cx43, designed by peptide array, inhibited proliferation of human smooth muscle cells (see FIGS. 3A-3F). […]

Assay [8] deals with triple negative breast cancer (Hs578T). As to the kind of experiment: WST-1 (viability/MTT) assay of cancer cell proliferation, Hs578T. Conditions: single treatment 30 μM at day 0; versus control peptide. In kind it is cell-based, human. Here is the method:
(§3) Two cancer cell lines originating from human melanoma (A375-MA2) and triple negative breast cancer (Hs578T) were used to assess the role of CycliCx in inhibiting proliferation. 500 cells per well were cultured in a 96-well plate containing 100 μl of medium. The next day (Day 0), 30 μM of CycliCx peptide or control peptide was added to the cells. Starting from Day 0, 10 μl of WST-1 reagent (viability/MTT) was added to each well and incubated for 75 minutes. Absorbance was measured at 450 nm. Data are presented in FIGS. 6B (A375-MA2) and 6C (Hs578T) as mean±SEM. p<0.05 by two way ANOVA.
For orientation: Tetrazolium assays rely on reduction of a dye to a coloured formazan, in cell work by metabolically active cells.

The test system of assay [9] is human melanoma (A375-MA2). As to the kind of experiment: WST-1 (viability/MTT) assay of cancer cell proliferation, A375-MA2. Conditions: single treatment 30 μM at day 0; versus control peptide. In kind it is cell-based. How it is done:
as §3

T1 sequence (P24864 whole entry, the tested form may be a part): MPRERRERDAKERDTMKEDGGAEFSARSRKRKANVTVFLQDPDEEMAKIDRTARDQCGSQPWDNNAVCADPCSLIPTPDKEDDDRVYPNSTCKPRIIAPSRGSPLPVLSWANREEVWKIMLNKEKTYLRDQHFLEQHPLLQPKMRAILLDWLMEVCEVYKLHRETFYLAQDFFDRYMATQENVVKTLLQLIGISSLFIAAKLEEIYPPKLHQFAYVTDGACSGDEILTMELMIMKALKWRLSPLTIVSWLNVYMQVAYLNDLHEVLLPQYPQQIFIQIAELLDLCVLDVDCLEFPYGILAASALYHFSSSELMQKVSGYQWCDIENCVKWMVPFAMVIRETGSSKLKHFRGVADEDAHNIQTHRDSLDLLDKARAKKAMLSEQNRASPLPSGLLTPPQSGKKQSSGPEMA

Take `CCCCCCCCCCCCCCCC(=O)OC[C@H](COP(=O)([O-])OCC[N+](C)(C)C)OC(=O)CCCC(=O)O` [PGPC, 1-palmitoyl-2-glutaroyl-sn-glycero-3-phosphorylcholine, reference compound]: the “proliferation (EDU incorporation, flow cytometry)” value in assay [1] is “decreased proliferation”. Further, in [2], the “ability of Cx43 to bind with, and therefore activate, cyclin D” value is “inhibited”.

Consider `CCCCCCCCCCCCCCCC(=O)OC[C@H](COP(=O)([O-])OCC[N+](C)(C)C)OC(=O)CCCC=O` [POVPC, 1-palmitoyl-2-oxovaleroyl-sn-glycero-3-phosphorylcholine, reference compound], for which the “proliferation (EDU incorporation, flow cytometry)” value in assay [1] is “increased proliferation”.

For the molecule `CO[C@H]1C[C@@H]2CC[C@@H](C)[C@@](O)(O2)C(=O)C(=O)N2CCCC[C@H]2C(=O)O[C@H]([C@H](C)C[C@@H]2CC[C@@H](OCCO)[C@H](OC)C2)CC(=O)[C@H](C)/C=C(\C)[C@@H](O)[C@@H](OC)C(=O)[C@H](C)C[C@H](C)/C=C/C=C/C=C/1C` [everolimus, reference compound], the “neointimal formation in human saphenous veins” value in [3] is given as “inhibited neointimal formation”.

On to “AYFNGCSSPTAPLDP [Control Pep, non-targeting control peptide, reference compound]”, for which the “Neointimal/media Ratio (±SEM)” value in assay [4] (female mice) is reported as 1.017 ± 0.3869; in [4] (male mice) it was 0.6690 ± 0.1111. Also, the “neointimal formation in human saphenous veins” value in assay [3] is “neointima were identified”.

For the molecule DPSKDCGDPKYAY, the “sequence required for cyclin E binding in truncation-based array” value in assay [5] is recorded as “minimum sequence”.

For “LDPSKDCGDPKYAY [pep3(mouse), CycliCx peptide with mouse Cx43 residues at positions 257 and 263]”, the “PKC-phosphorylated Cx43 species (western blot, pS368)” value in assay [6] was “predominantly induced”. The “phosphorylation status of Cx43 (western blot)” value in assay [6] is listed as “altered”; in assay [6] (listed as pep3), “significantly altered”. The “interactions with cyclin E (co-immunoprecipitation)” value in assay [7] is reported as “significantly reduced”.

In the case of “stearate-LDPAKDCGDQKYAY (Stearoyl-LDPAKDCGDQKYAY) [CycliCx]”, in assay [8], the “proliferation of Hs578T cells” value is given as “significantly inhibit proliferation”. For the same molecule, the “Neointimal/media Ratio (±SEM)” value turned out to be 0.0060 ± 0.0379 in [4] (female mice) and 0.0110 ± 0.0055 in assay [4] (male mice). Besides, the “neointimal formation induced by suture ligation” value in [4] (mouse carotid, peptide applied for 14 days) is on record as “completely inhibited; also recorded: prevented”. Moreover, the “EDU incorporation (proliferation) of human smooth muscle cells” value in [1] (peptide pretreatment 30 minutes, then PDGF for 2 days, versus PDGF alone or Scr peptide) is on record as “reduced”. Also, the “neointimal formation in human saphenous veins” value in [3] is listed as “inhibited neointimal formation; also recorded: completely inhibited”. Further, the “proliferation of A375-MA2 cells” value in assay [9] was “significantly inhibit proliferation”.

B1: platelet derived growth factor beta (protein, UniProt P01127 82-190, looked up)
Platelet-derived growth …: SLGSLTIAEPAMIAECKTRTEVFEISRRLIDRTNANFLVWPPCVEVQRCSGCCNNRNVQCRPTQVQLRPVQVRKIEIVRKKPIFKKATVTLEDHLACKCETVAAARPVT
notes: growth factor promoting MAPK phosphorylation of Cx43
For B1, the “proliferation (EDU incorporation, flow cytometry)” value in [1] was “increased proliferation”.
